{
  "source": "patent US7462629B2",
  "about": "“Immunosuppressant compounds and compositions” (IRM LLC, priority 2003, dated 2008)",
  "key": {"[1]": {"system": "EDG-3, EDG-5, EDG-6 and EDG-8", "assay": "EDG-3, -5, -6 and -8 GTP [γ-35S] binding assays (selectivity versus EDG-1)", "type": "biochemical, human", "experimental": "(§1) A. In Vitro: GPCR Activation Assay Measuring GTP [γ-^35S] Binding to Membranes Prepared from CHO Cells Expressing Human EDG Receptors\nFor each membrane preparation, titration experiments are first run with S1P control to determine the optimal amount of membranes to be added per assay well. […] For example, 3-[6-(4-cyclohexyl-3-trifluoromethyl-benzyloxy)-3,4-dihydro-1H-isoquinolin-2-yl]-propionic acid (compound 9) has an EC50 of 0.2 nM in the above assay and is at least 1000 fold selective for EDG-1 compared to one or more of the other receptors including EDG-3, EDG-5, EDG-6 and EDG-8."}, "blood lymphocytes": {"system": "blood lymphocytes", "assay": "Measurement of circulating lymphocytes (blood lymphocyte depletion)", "type": "in vivo, Mice (C57bl/6 male)", "conditions": "Mus musculus, mice, oral gavage, blood collected 6 and 24 hours after administration, read-out: ED50 (effective dose for 50% of blood lymphocyte depletion)", "experimental": "C. In Vivo: Screening Assays for Measurement of Blood Lymphocyte Depletion and Assessment of Heart Effect\nMeasurement of circulating lymphocytes: Compounds are dissolved in DMSO and diluted to obtain a final concentration of 4% DMSO (v/v, final concentration) and then further diluted in a constant volume of Tween80 25%/H2O, v/v. Tween80 25%/H2O (200 μl), 4% DMSO, and FTY720 (10 μg) are included as negative and positive controls, respectively. Mice (C57bl/6 male, 6-10 week-old) are administered 250-300 μL of compound solution orally by gavages under short isoflurane anesthesia.\nBlood is collected from the retro-orbital sinus 6 and 24 hours after drug administration under short isoflurane anesthesia. Whole blood samples are subjected to hematology analysis. Peripheral lymphocyte counts are determined using an automated analyzer. Subpopulations of peripheral blood lymphocytes are stained by fluorochrome-conjugated specific antibodies and analyzed using a fluorescent activating cell sorter (Facscalibur). Two mice are used to assess the lymphocyte depletion activity of each compound screened. The result is an ED50, which is defined as the effective dose required displaying 50% of blood lymphocyte depletion."}, "human EDG-1": {"biological_target": "T1, human EDG-1 (Homo sapiens, UniProt P21453)", "T1 construct": "expressed in transfected cells", "T1 sequence (P21453 whole entry)": "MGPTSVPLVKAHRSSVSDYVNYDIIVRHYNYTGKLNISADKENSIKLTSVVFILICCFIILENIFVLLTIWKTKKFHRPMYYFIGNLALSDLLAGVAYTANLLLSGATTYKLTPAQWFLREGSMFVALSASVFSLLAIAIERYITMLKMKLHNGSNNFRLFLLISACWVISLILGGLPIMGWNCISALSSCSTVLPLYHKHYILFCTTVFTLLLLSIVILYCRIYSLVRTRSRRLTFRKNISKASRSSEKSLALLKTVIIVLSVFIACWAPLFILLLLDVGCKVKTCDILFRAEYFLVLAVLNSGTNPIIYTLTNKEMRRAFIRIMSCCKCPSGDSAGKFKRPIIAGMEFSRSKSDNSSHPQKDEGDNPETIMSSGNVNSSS", "assay": "EDG-1 (S1P1) GTP [γ-35S] binding assay, membranes from CHO cells", "type": "biochemical", "conditions": "CHO membranes expressing human EDG-1", "experimental": "as §1\nEDG-1 (S1P1) GTP [γ-^35S] binding assay: Homogenized membranes are prepared from CHO cell clones stably expressing a human EDG-1 N-terminal c-myc tag. Cells are grown in suspension in two 850 cm^2 roller bottles for three or fours days before harvesting. The cells are centrifuged down, washed once with cold PBS, and resuspended in ≦20 ml of Buffer A (20 mM HEPES, pH 7.4, 10 mM EDTA, EDTA-free complete protease inhibitor cocktail [1 tablet/25 ml]). The cell suspension is homogenized on ice, using a Polytron homogenizer at 30000 rpm at three intervals of 15 seconds each. The homogenate is first centrifuged at 2000 rpm on a tabletop low speed centrifuge for 10 minutes. The supernatant, after passing through a cell strainer, is then re-centrifuged at 50,000×g for 25 minutes at 4° C. The pellet is resuspended into buffer B (15% glycerol, 20 mM HEPES, pH 7.4, 0.1 mM EDTA, EDTA-free complete protease inhibitor cocktail [1 tablet/10 ml]). Protein concentration of the prep is determined using the BCA Protein Assay kit (Pierce) using BSA as standard. The membranes are aliquoted and kept frozen at −80° C.\nSolutions of test compounds ranging from 10 mM to 0.01 nM are prepared in DMSO. S1P is diluted in 4% BSA solution as positive controls. […]"}},
  "data": [
    {"smiles": "O=C(O)CCN1CCc2cc(OCc3ccc(C4CCCCC4)c(C(F)(F)F)c3)ccc2C1", "note": "[Compound 9, 3-[6-(4-cyclohexyl-3-trifluoromethyl-benzyloxy)-3,4-dihydro-1H-isoquinolin-2-yl]-propionic acid]", "values": [
      {"measurement": "selectivity for EDG-1 compared to one or more of EDG-3, EDG-5, EDG-6 and EDG-8", "setting": "[1]", "value": "at least 1000 fold"},
      {"measurement": "ED50", "setting": "blood lymphocytes", "value": 0.2, "unit": "mg/kg"},
      {"measurement": "EC50", "setting": "human EDG-1", "value": 0.2, "unit": "nM"}
    ]}
  ]
}
